pIC50: −log10 of the molar value. The source made the active and inactive calls. The calls are words filed in the database; no cut-off is given here.
What was measured:
[1] = target: T1, Protein deacetylase HDAC6 (Homo sapiens) (UniProt Q9UBN7); test: Inhibition of HDAC6 in human A549 cells assessed as acetyl alpha-tubulin level at 2 uM incubated for 5 hrs by western blot analysis relative to control; type: cell-based
T1 sequence (whole entry): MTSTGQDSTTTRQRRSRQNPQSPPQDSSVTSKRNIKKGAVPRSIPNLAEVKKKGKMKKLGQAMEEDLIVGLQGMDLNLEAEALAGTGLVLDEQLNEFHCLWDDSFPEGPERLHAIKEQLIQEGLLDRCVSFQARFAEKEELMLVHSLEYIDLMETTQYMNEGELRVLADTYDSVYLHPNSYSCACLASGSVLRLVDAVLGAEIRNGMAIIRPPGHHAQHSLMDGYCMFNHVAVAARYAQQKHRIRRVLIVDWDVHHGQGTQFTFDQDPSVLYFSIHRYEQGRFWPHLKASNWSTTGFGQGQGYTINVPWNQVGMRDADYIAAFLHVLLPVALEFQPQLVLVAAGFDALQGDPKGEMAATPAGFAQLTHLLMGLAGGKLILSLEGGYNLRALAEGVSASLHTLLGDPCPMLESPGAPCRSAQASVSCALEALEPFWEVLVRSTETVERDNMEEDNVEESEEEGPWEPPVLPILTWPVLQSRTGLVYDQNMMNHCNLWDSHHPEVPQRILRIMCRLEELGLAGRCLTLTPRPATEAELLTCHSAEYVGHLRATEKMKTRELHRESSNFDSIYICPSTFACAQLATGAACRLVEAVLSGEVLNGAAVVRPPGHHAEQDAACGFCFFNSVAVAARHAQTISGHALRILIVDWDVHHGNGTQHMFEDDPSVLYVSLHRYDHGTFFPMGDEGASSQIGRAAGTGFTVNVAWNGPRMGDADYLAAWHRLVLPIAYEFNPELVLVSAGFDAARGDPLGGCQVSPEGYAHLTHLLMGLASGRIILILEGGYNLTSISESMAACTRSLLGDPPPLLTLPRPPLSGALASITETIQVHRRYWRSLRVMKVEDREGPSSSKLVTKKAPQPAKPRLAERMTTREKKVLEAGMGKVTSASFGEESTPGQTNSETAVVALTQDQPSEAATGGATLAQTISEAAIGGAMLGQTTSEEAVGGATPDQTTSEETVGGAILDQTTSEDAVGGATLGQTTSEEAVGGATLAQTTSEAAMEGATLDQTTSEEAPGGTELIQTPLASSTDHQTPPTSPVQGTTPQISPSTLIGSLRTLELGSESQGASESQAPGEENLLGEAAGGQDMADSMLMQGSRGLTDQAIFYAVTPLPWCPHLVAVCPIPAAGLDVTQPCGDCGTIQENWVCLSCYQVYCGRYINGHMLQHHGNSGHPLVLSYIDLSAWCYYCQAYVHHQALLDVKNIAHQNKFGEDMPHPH

[2] = target: T2, Class 1 histone deacetylase (Homo sapiens) (UniProt Q13547+O15379+Q92769+Q9BY41); test: Inhibition of class 1 HDAC in human A549 cells assessed as acetyl histone H4 level at 2 uM incubated for 5 hrs by western blot analysis relative to control; type: cell-based
T2 sequence (O15379 whole entry, looked up, the tested form may be a part): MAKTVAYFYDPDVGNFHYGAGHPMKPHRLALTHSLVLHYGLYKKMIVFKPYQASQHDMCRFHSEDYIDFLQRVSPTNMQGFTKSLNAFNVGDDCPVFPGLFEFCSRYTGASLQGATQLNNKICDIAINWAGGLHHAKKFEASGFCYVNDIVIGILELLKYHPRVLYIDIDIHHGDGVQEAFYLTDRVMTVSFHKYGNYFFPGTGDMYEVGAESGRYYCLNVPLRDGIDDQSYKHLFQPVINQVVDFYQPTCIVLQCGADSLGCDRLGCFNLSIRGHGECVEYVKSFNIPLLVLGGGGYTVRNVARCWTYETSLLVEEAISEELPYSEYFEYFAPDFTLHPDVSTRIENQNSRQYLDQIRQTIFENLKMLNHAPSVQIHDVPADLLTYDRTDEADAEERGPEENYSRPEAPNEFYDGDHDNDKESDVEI
T2 sequence (Q13547 whole entry, looked up, the tested form may be a part): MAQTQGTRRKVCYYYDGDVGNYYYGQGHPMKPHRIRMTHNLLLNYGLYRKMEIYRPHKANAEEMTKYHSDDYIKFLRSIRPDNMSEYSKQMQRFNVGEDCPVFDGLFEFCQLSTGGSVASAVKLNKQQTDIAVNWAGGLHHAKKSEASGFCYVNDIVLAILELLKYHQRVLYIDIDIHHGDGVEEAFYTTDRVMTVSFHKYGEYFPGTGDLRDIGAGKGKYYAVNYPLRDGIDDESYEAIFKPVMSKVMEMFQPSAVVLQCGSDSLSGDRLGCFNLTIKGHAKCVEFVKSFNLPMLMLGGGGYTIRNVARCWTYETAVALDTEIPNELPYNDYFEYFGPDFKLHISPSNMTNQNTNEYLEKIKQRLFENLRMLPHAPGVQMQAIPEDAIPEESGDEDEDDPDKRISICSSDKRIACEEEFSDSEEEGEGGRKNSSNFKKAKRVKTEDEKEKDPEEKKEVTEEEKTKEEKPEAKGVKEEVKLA
T2 sequence (Q92769 whole entry, looked up, the tested form may be a part): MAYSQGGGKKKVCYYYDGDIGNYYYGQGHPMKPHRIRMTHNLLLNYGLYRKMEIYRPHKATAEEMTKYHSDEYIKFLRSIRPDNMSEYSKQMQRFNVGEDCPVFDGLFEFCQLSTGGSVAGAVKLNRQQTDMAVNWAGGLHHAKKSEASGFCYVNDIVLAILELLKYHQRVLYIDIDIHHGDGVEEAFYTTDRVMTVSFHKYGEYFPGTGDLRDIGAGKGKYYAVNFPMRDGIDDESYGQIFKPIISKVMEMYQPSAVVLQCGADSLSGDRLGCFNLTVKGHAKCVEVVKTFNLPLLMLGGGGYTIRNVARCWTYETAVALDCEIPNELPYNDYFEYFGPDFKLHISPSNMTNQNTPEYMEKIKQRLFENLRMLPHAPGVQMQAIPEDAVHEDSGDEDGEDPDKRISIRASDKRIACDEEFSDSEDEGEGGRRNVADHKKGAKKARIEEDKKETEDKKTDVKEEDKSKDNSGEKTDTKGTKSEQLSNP
T2 sequence (Q9BY41 whole entry, looked up, the tested form may be a part): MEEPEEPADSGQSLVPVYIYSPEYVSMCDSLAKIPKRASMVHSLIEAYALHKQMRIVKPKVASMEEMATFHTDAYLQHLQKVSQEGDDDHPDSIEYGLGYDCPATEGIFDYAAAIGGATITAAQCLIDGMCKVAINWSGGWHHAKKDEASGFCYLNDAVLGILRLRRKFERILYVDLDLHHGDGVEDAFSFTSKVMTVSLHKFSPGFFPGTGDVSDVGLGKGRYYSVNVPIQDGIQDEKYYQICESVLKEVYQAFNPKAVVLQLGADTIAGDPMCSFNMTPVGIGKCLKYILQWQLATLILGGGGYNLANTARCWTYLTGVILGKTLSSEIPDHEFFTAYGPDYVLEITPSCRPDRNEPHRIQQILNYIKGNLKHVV

[3] = target: T3, Protein deacetylase HDAC6 (Homo sapiens, UniProt Q9UBN7); test: Inhibition of N-terminal GST-tagged human full length recombinant HDAC6 (1 to 1215 residues) expressed in Sf9 cells using Boc-Lys(acetyI)-AMC as substrate preincubated with enzyme for 1 hr followed by substrate addition and measured after 30 mins by fluorescence based analysis
T3 sequence (Q9UBN7 whole entry): T1 sequence (whole entry)

Histone deacetylase 2 = Histone deacetylase 2 (Homo sapiens, UniProt Q92769); test: Inhibition of C-terminal FLAG-tagged human full length recombinant HDAC2 (1 to 488 residues) expressed in Sf9 cells using Boc-Lys(acetyI)-AMC as substrate preincubated with enzyme for 1 hr followed by substrate addition and measured after 30 mins by fluorescence based analysis
Sequence of Histone deacetylase 2 (Q92769 whole entry, the tested form may be a part): as the sequence (Q92769 whole entry, looked up, the tested form may be a part) above

Homo sapiens = species on record: Homo sapiens; test: Selectivity index, ratio of IC50 for inhibition of C-terminal FLAG-tagged human full length recombinant HDAC2 (1 to 488 residues) expressed in Sf9 cells to IC50 for inhibition of N-terminal GST-tagged human full length recombinant HDAC6 (1 to 1215 residues) expressed in Sf9 cells
[4] = target: T2, Class 1 histone deacetylase (Homo sapiens); test: Irreversible inhibition of class 1 HDAC in human A549 cells assessed as acetyl histone H4 level at 2 uM incubated for 5 hrs followed by drug wash-out for 24 hrs by western blot analysis; type: cell-based
[5] = target: T2, Class 1 histone deacetylase (Homo sapiens); test: Irreversible inhibition of class 1 HDAC in human A549 cells assessed as acetyl histone H4 level at 2 uM incubated for 5 hrs followed by drug wash-out for 1 hr by western blot analysis; type: cell-based
[6] = target: T2, Class 1 histone deacetylase (Homo sapiens); test: Irreversible inhibition of class 1 HDAC in human A549 cells assessed as acetyl histone H4 level at 2 uM incubated for 5 hrs followed by drug wash-out and measured immediately after drug wash-out by western blot analysis; type: cell-based
[7] = target: T1, Protein deacetylase HDAC6 (Homo sapiens); test: Irreversible inhibition of HDAC6 in human A549 cells assessed as acetyl alpha-tubulin level at 2 uM incubated for 5 hrs followed by drug wash-out for 24 hrs by western blot analysis relative to control; type: cell-based
[8] = target: T1, Protein deacetylase HDAC6 (Homo sapiens); test: Irreversible inhibition of HDAC6 in human A549 cells assessed as acetyl alpha-tubulin level at 2 uM incubated for 5 hrs followed by drug wash-out for 1 hr by western blot analysis relative to control; type: cell-based
[9] = target: T1, Protein deacetylase HDAC6 (Homo sapiens); test: Irreversible inhibition of HDAC6 in human A549 cells assessed as acetyl alpha-tubulin level at 2 uM incubated for 5 hrs followed by drug wash-out and measured immediately after drug wash-out by western blot analysis relative to control; type: cell-based
RPMI-8226 = test: Antiproliferative activity against human RPMI-8226 cells assessed as inhibition of cell proliferation incubated for 48 hrs by CCK8 assay; type: functional, cell-based; details: RPMI-8226, 48 h
U-266 = test: Antiproliferative activity against human U-266 cells assessed as inhibition of cell proliferation incubated for 48 hrs by CCK8 assay; type: functional, cell-based; details: U-266, 48 h
MM1.S = test: Antiproliferative activity against human MM1.S cells assessed as inhibition of cell proliferation incubated for 48 hrs by CCK8 assay; type: functional, cell-based
[10] = Cytotoxicity against human L02 cells assessed as inhibition of cell proliferation incubated for 48 hrs by CCK8 assay; type: toxicity, cell-based
[11] = target: T1, Protein deacetylase HDAC6 (Homo sapiens); details: A549, dose 80.0 nM, time 5.0 hrs
[12] = target: T1, Protein deacetylase HDAC6 (Homo sapiens); test: Inhibition of HDAC6 in human A549 cells assessed as acetyl alpha-tubulin level at 10 uM incubated for 5 hrs by western blot analysis relative to control; type: cell-based
[13] = target: T2, Class 1 histone deacetylase (Homo sapiens); test: Inhibition of class 1 HDAC in human A549 cells assessed as acetyl histone H4 level at 10 uM incubated for 5 hrs by western blot analysis relative to control; type: cell-based
[14] = target: T1, Protein deacetylase HDAC6 (Homo sapiens); test: Irreversible inhibition of HDAC6 in human A549 cells assessed as acetyl alpha-tubulin level at 2 uM incubated for 5 hrs followed by drug wash-out for 6 hrs by western blot analysis relative to control; type: cell-based
[15] = Effect on HDAC6 protein expression in human A549 cells assessed as change in HDAC6 protein expression at 2 uM incubated for 5 hrs followed by drug wash-out and measured following drug wash-out by western blot analysis relative to control; type: functional
[16] = Effect on HDAC6 protein expression in human A549 cells assessed as change in HDAC6 protein expression at 2 uM incubated for 5 hrs followed by drug wash-out for 1 hr by western blot analysis relative to control; type: functional
[17] = Effect on HDAC6 protein expression in human A549 cells assessed as change in HDAC6 protein expression at 2 uM incubated for 5 hrs followed by drug wash-out for 6 hrs by western blot analysis relative to control; type: functional
[18] = Effect on HDAC6 protein expression in human A549 cells assessed as change in HDAC6 protein expression at 2 uM incubated for 5 hrs followed by drug wash-out for 24 hrs by western blot analysis relative to control; type: functional
[19] = target: T2, Class 1 histone deacetylase (Homo sapiens); test: Irreversible inhibition of class 1 HDAC in human A549 cells assessed as acetyl histone H4 level at 2 uM incubated for 5 hrs followed by drug wash-out for 6 hrs by western blot analysis; type: cell-based
[20] = target: T2, Class 1 histone deacetylase (Homo sapiens); test: Irreversible inhibition of class 1 HDAC in human A549 cells assessed as acetyl histone H3 level at 2 uM incubated for 5 hrs followed by drug wash-out and measured immediately after drug wash-out by western blot analysis; type: cell-based
[21] = target: T2, Class 1 histone deacetylase (Homo sapiens); test: Irreversible inhibition of class 1 HDAC in human A549 cells assessed as acetyl histone H3 level at 2 uM incubated for 5 hrs followed by drug wash-out for 1 hr by western blot analysis; type: cell-based
[22] = target: T2, Class 1 histone deacetylase (Homo sapiens); test: Irreversible inhibition of class 1 HDAC in human A549 cells assessed as acetyl histone H3 level at 2 uM incubated for 5 hrs followed by drug wash-out for 6 hrs by western blot analysis; type: cell-based
[23] = target: T2, Class 1 histone deacetylase (Homo sapiens); test: Irreversible inhibition of class 1 HDAC in human A549 cells assessed as acetyl histone H3 level at 2 uM incubated for 5 hrs followed by drug wash-out for 24 hrs by western blot analysis; type: cell-based

| fold change (FC) [1] | fold change (FC) [2] | pIC50 [3] | pIC50 (Histone deacetylase 2) | pIC50 (RPMI-8226) | pIC50 (MM1.S) | SMILES | Ratio IC50 (Homo sapiens) | pIC50 (U-266) | IC50 at 48 h [10] | other results |
| --- | --- | --- | --- | --- | --- | --- | --- | --- | --- | --- |
| 2.7 | 1.7 | 6.51 | 6.00 | – | – | O=C(/C=C/c1ccc(Oc2no[n+]([O-])c2S(=O)(=O)c2ccccc2)cc1)NO | 3.2 | – | – | – |
| 1.3 | 0.4 | 5.57 | 5.28 | – | – | COc1cc(C(=O)NO)ccc1Oc1no[n+]([O-])c1S(=O)(=O)c1ccccc1 | 2 | – | – | – |
| 2.1 | 0.5 | 6.80 | 5.47 | 5.92 | 5.96 | O=C(NO)c1ccc(Oc2no[n+]([O-])c2S(=O)(=O)c2ccccc2)cc1 | 21.3 | 5.89 | 14.3 µM | fold change (FC) [4]: 0.6; fold change (FC) [5]: 1.6; fold change (FC) [6]: 1; fold change (FC) [7]: 2.2; fold change (FC) [8]: 4.4; fold change (FC) [9]: 3.9; fold change (FC) [14]: 3.7; fold change (FC) [15]: 0.9; fold change (FC) [16]: 1.1; fold change (FC) [17]: 1.1; fold change (FC) [18]: 1.2; fold change (FC) [19]: 0.9; fold change (FC) [20]: 1.1; fold change (FC) [21]: 1.2; fold change (FC) [22]: 0.9; fold change (FC) [23]: 0.7 |
| 1.1 | 0.2 | 4.41 | 5.09 | – | – | O=C(NO)c1cccc(Oc2no[n+]([O-])c2S(=O)(=O)c2ccccc2)c1 | 0.2 | – | – | – |

Further lines, the compound ahead of its results:

| SMILES | fold change (FC) [1] | fold change (FC) [2] | pIC50 [3] | pIC50 (Histone deacetylase 2) | pIC50 (RPMI-8226) | pIC50 (MM1.S) | Ratio IC50 (Homo sapiens) | pIC50 (U-266) | IC50 at 48 h [10] | other results |
| --- | --- | --- | --- | --- | --- | --- | --- | --- | --- | --- |
| O=C(/C=C/COc1no[n+]([O-])c1S(=O)(=O)c1ccccc1)NO | 0.8 | 0.5 | 4.98 | 5.18 | – | – | 0.6 | – | – | – |
| O=C(CCCCCOc1no[n+]([O-])c1S(=O)(=O)c1ccccc1)NO | 3.8 | 2.1 | 7.33 | – | 6.32 | 6.37 | – | 6.16 | 8.7 µM | fold change (FC) [4]: 1.8; fold change (FC) [5]: 4.7; fold change (FC) [6]: 4.4; fold change (FC) [7]: 2.5; fold change (FC) [8]: 2.2; fold change (FC) [9]: 2 |
| O=S(=O)(c1ccccc1)c1c(OCc2ccc(CO)cc2)no[n+]1[O-] | – | – | – | – | 5.96 | 6.04 | – | 5.82 | 8.4 µM | – |
| O=C(NO)c1ccc(COc2nonc2S(=O)(=O)c2ccccc2)cc1 | – | – | – | – | 5.21 | 5.19 | – | < 5.00 | > 30 µM | – |
| CN1CCc2c(c3ccccc3n2Cc2ccc(C(=O)NO)cc2)C1 | – | – | – | – | – | – | – | – | – | inhibition [11]: Active |
| O=S(=O)(c1ccccc1)c1c(OCCCCCCO)no[n+]1[O-] | 1.3 | 1.3 | – | – | – | – | – | – | – | fold change (FC) [12]: 1.2; fold change (FC) [13]: 0.8 |

Source: ChEMBL document CHEMBL5346971, “Discovery of the First Irreversible HDAC6 Isoform Selective Inhibitor with Potent Anti-Multiple Myeloma Activity” (J Med Chem, 2023)
